24 compounds from patent US8883782B2, “Spiro-tetracyclic ring compounds as beta-secretase modulators and methods of use” (Amgen Inc., priority 2010, dated 2014) can be followed below.

Where two headings read alike, the source gives them in different places.

Test [1] relates to Aβ40 in conditioned medium of cells stably expressing Amyloid Precursor Protein (APP). As to the kind of experiment: In vitro BACE cell-based assay (Aβ40 in conditioned medium, sandwich ELISA). The following applies: Homo sapiens, read-out: HEK cell assay. As to the method: In Vitro BACE Cell-Based Assay
The cell-based assay measures inhibition or reduction of Aβ40 in conditioned medium of test compound treated cells expressing amyloid precursor protein.
Cells stably expressing Amyloid Precursor Protein (APP) were plated at a density of 40K cells/well in 96 well plates (Costar). The cells were cultivated for 24 hours at 37° C. and 5% CO2 in DMEM supplemented with 10% FBS. The test compounds were then added to cells in 10-point dose response concentrations with the starting concentration being either 100 μM or 10 μM. The compounds were diluted from stock solutions in DMSO and the final DMSO concentration of the test compounds on cells was 0.1%. […] The IC50 of the compound was calculated from the percent of control or percent inhibition of Aβ 40 as a function of the concentration of the test compound.
The sandwich ELISA to detect Aβ 40 was performed in 96 well microtiter plates, which were pre-treated with goat anti-rabbit IgG (Pierce). The capture and detecting antibody pair that were used to detect Aβ 40 from cell supernatants were affinity purified pAb40 (Biosource) and biotinylated 6E10 (Signet Labs Inc.), respectively. The optimal concentration for the pAb40 antibody was 3 μg/ml in Superblock/TBS (Pierce) that was supplemented with 0.05% Tween 20 (Sigma).
Cellular supernatants were incubated with the capture antibody for 3 h at 4° C., followed by 3 wash steps in TBS-tween (0.05%). The detecting antibody incubation was for 2 h at 4° C., again followed by the wash steps as described previously. The final readout of the ELISA is Time-Resolved Fluorescence (counts per minute) using Delfia reagents Streptavidin-Europium and Enhancement solutions (Perkin Elmer) and the Victor 2 multilabel counter (Perkin Elmer).
For orientation: An ELISA detects its analyte on a solid surface through an enzyme-linked reagent.

In test [2] the target is Beta Secretase enzyme (BACE) (Homo sapiens, UniProt P56817). As to the kind of experiment: In vitro enzymatic BACE FRET (fluorescence resonance energy transfer) assay. Format: biochemical. To be noted: average IC50, enzyme assay; read-out: BACE 1 FRET assay. The essentials:
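Enzyme activity was measured at pH 4.2 (0.05 M acetate, 10% DMSO final, 100 uM genapol) by cleavage of a 50 nM quenched fluorogenic peptide. After one hour, Tris was added to neutralise the pH and fluorescence was recorded.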

Setting [3] is: HEK293, average IC50, HEK cells.

Chain of Beta Secretase enzyme (BACE) (P56817 46-501, species assumed): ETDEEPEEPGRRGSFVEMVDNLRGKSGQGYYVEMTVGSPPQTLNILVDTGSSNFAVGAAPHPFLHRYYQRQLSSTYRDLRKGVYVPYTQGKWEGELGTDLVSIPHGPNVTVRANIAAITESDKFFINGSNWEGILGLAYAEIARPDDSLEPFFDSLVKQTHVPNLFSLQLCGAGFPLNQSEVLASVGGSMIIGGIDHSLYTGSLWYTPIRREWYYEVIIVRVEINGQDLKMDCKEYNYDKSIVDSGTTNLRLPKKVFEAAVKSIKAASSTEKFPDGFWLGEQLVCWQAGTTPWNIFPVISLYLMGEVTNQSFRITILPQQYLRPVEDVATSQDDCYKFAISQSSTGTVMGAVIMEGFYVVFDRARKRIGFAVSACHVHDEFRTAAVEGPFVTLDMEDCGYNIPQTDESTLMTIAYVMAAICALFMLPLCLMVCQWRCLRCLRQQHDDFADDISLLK

For the compound `NC1=N[C@@]2(CO1)c1cc(-c3cccc(C(F)(F)F)c3)ccc1Oc1cnc(C3=CCOCC3)cc12` [Example 145, (5S)-3-(3,6-dihydro-2H-pyran-4-yl)-7-(3-(trifluoromethyl)phenyl)spiro[chromeno[2,3-c]pyridine-5,4′-[1,3]oxazol]-2′-amine], the IC50 in test [1] (HEK293, average IC50) turned out to be 81.9 nM; in test [2] it was 2.2 nM.

For `CC(C)(C)C#Cc1cc2c(nc1F)Oc1ccc(-c3cccnc3F)cc1[C@]21COC(N)=N1` [Example 674, (5R)-3-(3,3-dimethyl-1-butyn-1-yl)-2-fluoro-7-(2-fluoro-3-pyridinyl)spiro[chromeno[2,3-b]pyridine-5,4′-[1,3]oxazol]-2′-amine], the IC50 is 2810 nM in test [1] (setting [3]) and 239 nM in test [2].

In the case of `NC1=N[C@]2(CO1)c1cc(-c3ccnc(F)c3)ccc1Oc1cnc(-c3cncnc3)cc12` [Example 393, (5R)-7-(2-fluoro-4-pyridinyl)-3-(5-pyrimidinyl)spiro[chromeno[2,3-c]pyridine-5,4′-[1,3]oxazol]-2′-amine], the results for the IC50 in test [1] (setting [3]) and in test [2] were 224 nM and 63.3 nM, respectively.

Turning to `COC(C)(C)CNc1cc2c(cn1)Oc1ccc(-c3cccnc3F)cc1[C@@]21COC(N)=N1` [Example 418, (5S)-7-(2-fluoro-3-pyridinyl)-N~3~-(2-methoxy-2-methylpropyl)spiro[chromeno[2,3-c]pyridine-5,4′-[1,3]oxazole]-2′,3-diamine], the values for the IC50 in test [1] (setting [3]) and in test [2] were 14.1 nM and 3 nM, respectively.

`Cc1cnc(F)c(-c2ccc3c(c2)[C@@]2(COC(N)=N2)c2cc(-c4ccnc(F)c4)ncc2O3)c1` [Example 422, (5S)-7-(2-fluoro-5-methyl-3-pyridinyl)-3-(2-fluoro-4-pyridinyl)spiro[chromeno[2,3-c]pyridine-5,4′-[1,3]oxazol]-2′-amine]: the values for the IC50 in test [1] (setting [3]) and in test [2] were 23.2 nM and 2.1 nM, respectively.

`NC1=N[C@@]2(CS1)c1cc(-c3ccc(F)nc3)ccc1Oc1ncc(Br)cc12` [Example 963, (5S)-3-bromo-7-(6-fluoro-3-pyridinyl)spiro[chromeno[2,3-b]pyridine-5,4′-[1,3]thiazol]-2′-amine]: the IC50 in test [1] (setting [3]) came out at 833 nM; in test [2] it was 43.3 nM.

As for `CC1(C)C[C@H](c2cnc3c(c2)[C@]2(COC(N)=N2)c2cc(-c4cccc(Cl)c4)ccc2O3)CCO1` [Example 473, (5S)-7-(3-chlorophenyl)-3-((4R)-2,2-dimethyltetrahydro-2H-pyran-4-yl)spiro[chromeno[2,3-b]pyridine-5,4′-[1,3]oxazol]-2′-amine], the IC50 in test [1] (setting [3]) is 15.5 nM; in test [2], 2.1 nM.

With `NC1=N[C@@]2(CO1)c1cc(C#CC3CC3)ccc1Oc1ncc(N3CCC(F)(F)C3)cc12` [Example 178, (5S)-7-(cyclopropylethynyl)-3-(3,3-difluoro-1-pyrrolidinyl)spiro[chromeno[2,3-b]pyridine-5,4′-[1,3]oxazol]-2′-amine], the IC50 was determined as 14.3 nM in test [1] (HEK293, average IC50) and 3.1 nM in test [2].

For the compound `NC1=N[C@@]2(CO1)c1cc(-c3c(F)ccnc3F)ccc1Oc1cnc(C3CCOCC3)cc12` [Example 616, (5S)-7-(2,4-difluoro-3-pyridinyl)-3-(tetrahydro-2H-pyran-4-yl)spiro[chromeno[2,3-c]pyridine-5,4′-[1,3]oxazol]-2′-amine], the figures for the IC50 in test [1] (setting [3]) and in test [2] were 176 nM and 17 nM, respectively.

As to `NC1=N[C@@]2(CO1)c1cc(OCc3cccnc3)ccc1Oc1ncc(-c3cccnc3)cc12` [Example 975, (5S)-3-(3-pyridinyl)-7-(3-pyridinylmethoxy)spiro[chromeno[2,3-b]pyridine-5,4′-[1,3]oxazol]-2′-amine], the IC50 in test [1] (HEK293, average IC50) is 1080 nM; in test [2], 116 nM.

On to `NC1=N[C@@]2(CO1)c1cc(-c3ccccc3)ccc1Oc1cnc(C3CCOCC3)cc12` [Example 238, (5S)-7-phenyl-3-(tetrahydro-2H-pyran-4-yl)spiro[chromeno[2,3-c]pyridine-5,4′-[1,3]oxazol]-2′-amine], for which the IC50 in test [1] (HEK293, average IC50) came out at 164 nM; in test [2] it was 40.7 nM.

Take `CC1(COc2cc3c(cc2F)Oc2ccc(-c4cncc(Cl)c4)cc2[C@@]32COC(N)=N2)COC1` [Example 333, (4S)-7′-(5-chloro-3-pyridinyl)-3′-fluoro-2′-((3-methyl-3-oxetanyl)methoxy)spiro[1,3-oxazole-4,9′-xanthen]-2-amine]: the IC50 in test [1] (HEK293, average IC50) was found to be 21.8 nM; in test [2], 2.4 nM.

For the compound `Cc1ccnc(Oc2ccc3c(c2)[C@@]2(COC(N)=N2)c2cc(C4=CCOCC4)cc(F)c2O3)c1` [Example 1065, (4S)-2′-(3,6-dihydro-2H-pyran-4-yl)-4′-fluoro-7′-((4-methyl-2-pyridinyl)oxy)spiro[1,3-oxazole-4,9′-xanthen]-2-amine], the IC50 amounted to 1480 nM in test [1] (HEK293, average IC50) and 37.7 nM in test [2].

Consider `NC1=N[C@@]2(CO1)c1cc(-c3cccnc3F)ccc1Oc1c(F)cc(-c3ccc(F)nc3)cc12` [Example 640, (4S)-4′-fluoro-7′-(2-fluoro-3-pyridinyl)-2′-(6-fluoro-3-pyridinyl)spiro[1,3-oxazole-4,9′-xanthen]-2-amine], for which the figures for the IC50 in test [1] (setting [3]) and in test [2] were 23 nM and 1.2 nM, respectively.

Take `Cc1ncncc1-c1ccc2c(c1)[C@@]1(COC(N)=N1)c1cc(C3=CCOCC3)ncc1O2` [Example 808, (5S)-3-(3,6-dihydro-2H-pyran-4-yl)-7-(4-methyl-5-pyrimidinyl)spiro[chromeno[2,3-c]pyridine-5,4′-[1,3]oxazol]-2′-amine]: the IC50 was found to be 93 nM in test [1] (HEK293, average IC50) and 3 nM in test [2].

With `Cn1cc(-c2cncc(-c3ccc4c(c3)[C@@]3(COC(N)=N3)c3cc(-c5cnn(C)c5)ncc3O4)c2)cn1` [Example 233, (5S)-3-(1-methyl-1H-pyrazol-4-yl)-7-(5-(1-methyl-1H-pyrazol-4-yl)-3-pyridinyl)spiro[chromeno[2,3-c]pyridine-5,4′-[1,3]oxazol]-2′-amine], the IC50 was 92 nM in test [1] (HEK293, average IC50) and 28 nM in test [2].

Turning to `Cn1cc(-c2cc3c(cn2)Oc2ccc(-c4ccc(F)nc4)cc2[C@@]32COC(N)=N2)cn1` [Example 365, (5S)-7-(6-fluoro-3-pyridinyl)-3-(1-methyl-1H-pyrazol-4-yl)spiro[chromeno[2,3-c]pyridine-5,4′-[1,3]oxazol]-2′-amine], the IC50 in test [1] (HEK293, average IC50) was 42.4 nM; in test [2] it was 10.8 nM.

On to `CC#Cc1cncc(-c2ccc3c(c2)[C@@]2(COC(N)=N2)c2cc(C#CC4(C)COC4)cnc2O3)c1` [Example 943, (5S)-3-((3-methyl-3-oxetanyl)ethynyl)-7-(5-(1-propyn-1-yl)-3-pyridinyl)spiro[chromeno[2,3-b]pyridine-5,4′-[1,3]oxazol]-2′-amine], for which the values for the IC50 in test [1] (setting [3]) and in test [2] were 1 nM and 0.7 nM, respectively.

Consider `NC1=N[C@@]2(CO1)c1cc(-c3cncc(Cl)c3)ccc1Oc1cnc(C3CCOCC3)cc12` [Example 242, (5S)-7-(5-chloro-3-pyridinyl)-3-(tetrahydro-2H-pyran-4-yl)spiro[chromeno[2,3-c]pyridine-5,4′-[1,3]oxazol]-2′-amine], for which the IC50 was 21.1 nM in test [1] (HEK293, average IC50) and 3.1 nM in test [2].

Take `COc1ncc(-c2ccc3c(c2)[C@@]2(COC(N)=N2)c2cc(N4CCC(F)(F)C4)ncc2O3)cn1` [Example 415, (5S)-3-(3,3-difluoro-1-pyrrolidinyl)-7-(2-methoxy-5-pyrimidinyl)spiro[chromeno[2,3-c]pyridine-5,4′-[1,3]oxazol]-2′-amine]: the IC50 in test [1] (setting [3]) was 367 nM; in test [2], 81.7 nM.

In the case of `CC(C)(O)C#Cc1cc(F)c2c(c1)[C@]1(COC(N)=N1)c1cc(-c3cccnc3F)ccc1O2` [Example 199, 4-((4S)-2-amino-4′-fluoro-7′-(2-fluoro-3-pyridinyl)spiro[1,3-oxazole-4,9′-xanthen]-2′-yl)-2-methyl-3-butyn-2-ol], the IC50 in test [1] (HEK293, average IC50) amounted to 5.1 nM; in test [2], 0.8 nM.

With `N#Cc1cccc(-c2ccc3c(c2)[C@@]2(CSC(N)=N2)c2cc(C4CCOCC4)cnc2O3)c1F` [Example 790, 3-((5S)-2′-amino-3-(tetrahydro-2H-pyran-4-yl)spiro[chromeno[2,3-b]pyridine-5,4′-[1,3]thiazol]-7-yl)-2-fluorobenzonitrile], the IC50 in test [1] (HEK293, average IC50) stood at 97 nM; in test [2] it was 14.5 nM.

Take `NC1=N[C@]2(CS1)c1cc(-c3cccnc3F)c(F)cc1Oc1c(F)cc(N3CCOCC3)cc12` [Example 880, (4R)-3′,5′-difluoro-2′-(2-fluoro-3-pyridinyl)-7′-(4-morpholinyl)spiro[1,3-thiazole-4,9′-xanthen]-2-amine]: the IC50 in test [1] (setting [3]) was ≥ 10000 nM; in test [2] it was 1230 nM.

As for `NC1=N[C@@]2(CO1)c1cc(-c3cccnc3F)ccc1Oc1c(F)cc(-c3cnccn3)cc12` [Example 205, (4S)-4′-fluoro-7′-(2-fluoro-3-pyridinyl)-2′-(2-pyrazinyl)spiro[1,3-oxazole-4,9′-xanthen]-2-amine], the IC50 was determined as 10.1 nM in test [1] (HEK293, average IC50) and 1.6 nM in test [2].
